Results taken from patent US12139473B2, “Substituted-N-heteroaryl compounds and uses thereof” (Bionomics Limited, priority 2019, dated 2024).

Molecular target: T1, hKv3.1 (Homo sapiens, UniProt P48547)
T1 construct: expressed in transfected cells
T1 sequence (P48547 1-511): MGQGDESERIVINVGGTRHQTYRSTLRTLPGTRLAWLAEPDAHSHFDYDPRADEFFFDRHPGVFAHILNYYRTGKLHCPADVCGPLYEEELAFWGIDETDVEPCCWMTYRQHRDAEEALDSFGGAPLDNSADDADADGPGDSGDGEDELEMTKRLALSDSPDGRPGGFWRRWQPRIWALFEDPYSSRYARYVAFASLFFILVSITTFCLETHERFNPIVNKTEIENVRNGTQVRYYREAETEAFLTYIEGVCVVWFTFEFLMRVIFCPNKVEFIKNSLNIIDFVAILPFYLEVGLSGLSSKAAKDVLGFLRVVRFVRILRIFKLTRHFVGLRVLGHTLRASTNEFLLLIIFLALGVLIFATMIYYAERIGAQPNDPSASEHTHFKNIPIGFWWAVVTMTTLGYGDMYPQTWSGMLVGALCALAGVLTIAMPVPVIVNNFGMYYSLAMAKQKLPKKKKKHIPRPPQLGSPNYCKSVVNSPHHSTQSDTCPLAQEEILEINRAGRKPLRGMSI
Assay: Automated patch clamp electrophysiology (Patchliner), CHO/Kv3.1 cells
Format: cell-based
Conditions: 10 μM compound, hKv3.1 in CHO-K1, whole-cell; for Kv3.1 Activity at 10 μM Potentiation (%): peak current at voltage step of −10 mV vs vehicle (0.33% DMSO); for Kv3.1 Activity at 10 μM Voltage Shift (mV): voltage shift of the IV curve at V1/2
Protocol: hKv3.1, hKv3.2, hKv3.3, and hKv3.4 were stably expressed in CHO-K1 (Chinese hamster ovary) cells and kept under constant antibiotic selection. For in vitro assays, cells were maintained in appropriate growth medium at 37° C. and 5% CO2 in a humidified incubator.
hKv3.X expressing cells were plated in T-25 flasks for 3-4 days at 37° C. (no selection antibiotic) prior to use and grown to 80% confluence. Cells were washed twice with PBS (calcium and magnesium free) and detached with a 5-minute treatment at 37° C. with 2-3 mls of Accutase®. Cells were collected, and flask was washed in CHO-SFM II media (Life Technologies Gibco), centrifuged for 2 minutes at ˜110×g and resuspended to obtain a single cell suspension of ˜2-3×10^6 cells/ml.
The intracellular solution contained the following (in mM): KCl 50, NaCl 10, KF 60, EGTA 20, HEPES 10, adjusted to pH 7.2 with KOH and an osmolarity of 285 mOsmol. Seal enhancer was purchased from Nanion (80 mM NaCl, 3 mM KCl, 10 mM MgCl2, 35 mM CaCl2), 10 mM HEPES, pH7.4, 298 mOsmol. The external solution contained (in mM): NaCl 140, KCl 4, CaCl2) 2, MgCl2 1, HEPES 10, Glucose 5, adjusted to pH7.4 and an osmolarity of 298 mOsmol.
All compounds were initially tested at 10 uM at a final DMSO concentration of 0.33%. Compounds were dissolved in dimethylsulfoxide (DMSO) at a stock concentration of 30 mM. The compound was further diluted 1:10 to give a stock concentration of 3 mM in DMSO. The final assay solution was diluted 1:300 in External solution to give a final concentration of 10 uM. For the DMSO Control Buffer 30 uL of DMSO was added to 10 mL buffer.
All electrophysiological recordings were performed at ambient temperature (21-23° C.) using automated patch clamp (Patchliner, Nanion Technologies GmbH) in the whole-cell configuration.
Cell membrane potentials were held at −80 mV, and currents were evoked by voltage steps (1000 ms duration) from −60 to +60 mV in 10 mV increments. This was performed first with vehicle (0.33% DMSO) and then with 10 uM compound, after a 3-minute incubation period. Data was taken from 4 cells per assay.
The recordings were analysed and selected using peak current amplitude (>100 pA at the −10 mV voltage step) in the absence of compound to eliminate unsuitable cells from analysis. Peak current amplitude was measured and recorded for each voltage step and data was normalised to the maximum current at +60 mV. The normalised Kv3.x currents following addition of the compound were then compared with the currents recorded prior to compound addition (vehicle control). Positive modulation was determined as % potentiation at the voltage step of −10 mV=[current (cmpd)/current (veh)]*100−100. % potentiation≥50% was considered acceptable. In addition, voltage shift of the IV curve at V1/2 was measured. V1/2 of ≥−5 mV was also considered acceptable. IV curves were plotted in GraphPad Prism (software version 6.0) and fitted with a Boltzmann equation, where V1/2 is the voltage at half-maximal activation.

| Kv3.1 Activity at 10 μM Potentiation (%) | Kv3.1 Activity at 10 μM Voltage Shift (mV) | Structure (SMILES) |
| --- | --- | --- |
| 16 | −3.9 mV | CC[C@H]1NC(=O)N(c2cc(Oc3ccc(C)c(OC)c3)ncn2)C1=O [Example 55, (5R)-5-ethyl-3-[6-(3-methoxy-4-methyl-phenoxy)pyrimidin-4-yl]imidazolidine-2,4-dione] |
| 17 | −2.2 mV | Cc1ccccc1Oc1cc(N2C(=O)NC(C)(C)C2=O)ncn1 [Example 26, 3-[6-(2-methylphenoxy)pyrimidin-4-yl]-5,5-dimethyl-imidazolidine-2,4-dione] |
| 63 | −2.1 mV | CCc1cc(Oc2cc(N3C(=O)NC(C)(C)C3=O)ncn2)ccc1C [Example 30, 3-[6-(3-ethyl-4-methylphenoxy)pyrimidin-4-yl]-5,5-dimethyl-imidazolidine-2,4-dione] |
| 22 | −1.1 mV | CC[C@H]1NC(=O)N(c2ccnc(Oc3ccc(C)c(OC)c3)n2)C1=O [Example 59, (5R)-5-ethyl-3-[2-(3-methoxy-4-methyl-phenoxy)pyrimidin-4-yl]imidazolidine-2,4-dione] |
| 3 | −1.1 mV | Cc1ccc(Oc2cc(N3C(=O)NC(C)(C)C3=O)ncn2)cc1 [Example 28, 3-[6-(4-methylphenoxy)pyrimidin-4-yl]-5,5-dimethyl-imidazolidine-2,4-dione] |
| 19 | −1.7 mV | CC1(C)NC(=O)N(c2cc(Oc3ccc4c(c3)OC(F)(F)O4)ncn2)C1=O [Example 45, 3-[6-[(2,2-difluoro-1,3-benzodioxol-5-yl)oxy]pyrimidin-4-yl]-5,5-dimethyl-imidazolidine-2,4-dione] |
| 31 | −2.3 mV | Cc1ccc(Oc2cc(N3C(=O)NC(C)(C)C3=O)ncn2)cc1C#N [Example 22, 5-[6-(4,4-dimethyl-2,5-dioxo-imidazolidin-1-yl)pyrimidin-4-yl]oxy-2-methyl-benzonitrile] |
| 32 | −2.1 mV | CC[C@@]1(C)NC(=O)N(c2nccc(Oc3ccc(C)c(OC)c3)n2)C1=O [Example 48, (5R)-5-ethyl-3-[4-(3-methoxy-4-methyl-phenoxy)pyrimidin-2-yl]-5-methyl-imidazolidine-2,4-dione] |
| 33 | −1.6 mV | CC1(C)NC(=O)N(c2cc(Oc3ccc4c(c3)OCCC4)ncn2)C1=O [Example 33, 3-(6-chroman-7-yloxypyrimidin-4-yl)-5,5-dimethyl-imidazolidine-2,4-dione] |
| 18 | −2.0 mV | Cc1ccc(Oc2cc(N3C(=O)NC(C)(C)C3=O)ncn2)cc1OC(C)C [Example 38, 3-[6-(3-isopropoxy-4-methyl-phenoxy)pyrimidin-4-yl]-5,5-dimethyl-imidazolidine-2,4-dione] |
| 11 | +2.0 mV | COc1cc(Oc2cc(N3C(=O)NC(C)(C)C3=O)ncn2)ccc1C(F)(F)F [Example 42, 3-[6-[3-methoxy-4-(trifluoromethyl)phenoxy]pyrimidin-4-yl]-5,5-dimethyl-imidazolidine-2,4-dione] |
| 29 | −1.4 mV | COc1cc(C)ccc1Oc1cc(N2C(=O)NC(C)(C)C2=O)ncn1 [Example 21, 3-[6-(2-methoxy-4-methyl-phenoxy)pyrimidin-4-yl]-5,5-dimethyl-imidazolidine-2,4-dione] |
| 10 | −1.6 mV | Cc1ccc(Oc2cc(N3C(=O)NC(C)(C)C3=O)ncn2)cc1C [Example 29, 3-[6-(3,4-dimethylphenoxy)pyrimidin-4-yl]-5,5-dimethyl-imidazolidine-2,4-dione] |
